Data published in patent US8247211B2, “Glycopeptide antibiotics” (American Cyanamid Company, priority 2001, dated 2012).

Legend:
Assay in all cases: In vitro antibacterial evaluation: minimum inhibitory concentration (MIC), broth dilution method
Assay type in all cases: cell-based
Streptococcus sp. = tested on: Streptococcus sp.
Method in brief: (§1)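 Broth dilution per NCCLS M7-A2 in Muller-Hinton II […], inoculum 5×10^5 CFU/mL, antibiotic tested over 64-0.06 μg/mL. MIC is taken as the lowest concentration that inhibits growth. Panel includes recent clinical isolates resistant to methicillin, penicillin and/or vancomycin.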

Staphylococcus sp. = details: broth dilution, 18 hours at 35° C.
Method in brief: as §1

Enterococcus sp. = tested on: Enterococcus sp.
Method in brief: as §1

Escherichia coli = tested on: Escherichia coli
Method in brief: as §1

Substance: Di-N-(4-tert-butylbenzyl)-cyclo[glycyl-β-methylphenylalanyl-O-(4-O-hexopyranosylhexopyranosyl)tyrosyl-3-(2-iminoimidazolidin-4-yl)seryl-3-(3-hexopyranosyl-2-iminoimidazolidin-4-yl)serylseryl] [Example 60a]
- MIC Streptococcus agalactiae (GC 4564) (Streptococcus sp.; Streptococcus agalactiae (GC 4564), broth dilution, 18 hours at 35° C.): >128 µg/mL
- MIC Streptococcus pneumoniae (ATCC 6301) (Streptococcus sp.; Streptococcus pneumoniae (ATCC 6301), broth dilution, 18 hours at 35° C.): >128 µg/mL
- MIC Streptococcus pneumoniae (GC 1894) (Streptococcus sp.; Streptococcus pneumoniae (GC 1894), broth dilution, 18 hours at 35° C.): 64 µg/mL
- MIC Streptococcus pneumoniae (GC 4565) (Streptococcus sp.; Streptococcus pneumoniae (GC 4565), broth dilution, 18 hours at 35° C.): 128 µg/mL
- MIC Streptococcus pyogenes (GC 4563) (Streptococcus sp.; Streptococcus pyogenes (GC 4563), broth dilution, 18 hours at 35° C.): >128 µg/mL
- MIC Streptococcus pneumoniae (ATCC 6301) (Streptococcus sp.; strain ATCC 6301): >128 µg/mL
- MIC Streptococcus pneumoniae (GC 1894) (Streptococcus sp.; strain GC 1894): 64 µg/mL
- MIC Streptococcus pyogenes (GC 4563) (Streptococcus sp.; strain GC 4563): >128 µg/mL
- MIC Streptococcus agalactiae (GC 4564) (Streptococcus sp.; strain GC 4564): >128 µg/mL
- MIC Streptococcus pneumoniae (GC 4565) (Streptococcus sp.; strain GC 4565): 128 µg/mL
- MIC Coagulase Negative Staphylococcus (GC 4547) (Staphylococcus sp.): >128 µg/mL
- MIC Coagulase Negative Staphylococcus (GC 4548) (Staphylococcus sp.): >128 µg/mL
- MIC Coagulase Negative Staphylococcus (GC 4549) (Staphylococcus sp.): >128 µg/mL
- MIC Coagulase Negative Staphylococcus (GC 4551) (Staphylococcus sp.): >128 µg/mL
- MIC Coagulase Negative Staphylococcus (GC 6257) (Staphylococcus sp.): >128 µg/mL
- MIC Staphylococcus aureus (ATCC 29213) (Staphylococcus sp.): >128 µg/mL
- MIC Staphylococcus aureus (GC 1131) (Staphylococcus sp.): >128 µg/mL
- MIC Staphylococcus aureus (GC 3051) (Staphylococcus sp.): >128 µg/mL
- MIC Staphylococcus aureus (GC 3053) (Staphylococcus sp.): >128 µg/mL
- MIC Staphylococcus aureus (GC 4541) (Staphylococcus sp.): >128 µg/mL
- MIC Staphylococcus aureus (GC 4542) (Staphylococcus sp.): >128 µg/mL
- MIC Staphylococcus aureus (GC 4544) (Staphylococcus sp.): >128 µg/mL
- MIC Staphylococcus aureus (GC 4545) (Staphylococcus sp.): >128 µg/mL
- MIC Staphylococcus aureus SMITH (GC 4543) (Staphylococcus sp.): >128 µg/mL
- MIC Staphylococcus haemolyticus (GC 4546) (Staphylococcus sp.): >128 µg/mL
- MIC Staphylococcus aureus (ATCC 29213) (Staphylococcus sp.; strain ATCC 29213): >128 µg/mL
- MIC Staphylococcus aureus (GC 1131) (Staphylococcus sp.; strain GC 1131): >128 µg/mL
- MIC Staphylococcus aureus (GC 3051) (Staphylococcus sp.; strain GC 3051): >128 µg/mL
- MIC Staphylococcus aureus (GC 3053) (Staphylococcus sp.; strain GC 3053): >128 µg/mL
- MIC Staphylococcus aureus (GC 4541) (Staphylococcus sp.; strain GC 4541): >128 µg/mL
- MIC Staphylococcus aureus (GC 4542) (Staphylococcus sp.; strain GC 4542): >128 µg/mL
- MIC Staphylococcus aureus (GC 4544) (Staphylococcus sp.; strain GC 4544): >128 µg/mL
- MIC Staphylococcus aureus (GC 4545) (Staphylococcus sp.; strain GC 4545): >128 µg/mL
- MIC Staphylococcus haemolyticus (GC 4546) (Staphylococcus sp.; strain GC 4546): >128 µg/mL
- MIC Coagulase Negative Staphylococcus (GC 4547) (Staphylococcus sp.; strain GC 4547): >128 µg/mL
- MIC Coagulase Negative Staphylococcus (GC 4548) (Staphylococcus sp.; strain GC 4548): >128 µg/mL
- MIC Coagulase Negative Staphylococcus (GC 4549) (Staphylococcus sp.; strain GC 4549): >128 µg/mL
- MIC Coagulase Negative Staphylococcus (GC 4551) (Staphylococcus sp.; strain GC 4551): >128 µg/mL
- MIC Coagulase Negative Staphylococcus (GC 6257) (Staphylococcus sp.; strain GC 6257): >128 µg/mL
- MIC Staphylococcus aureus-SMITH (GC 4543) (Staphylococcus sp.; strain SMITH GC 4543): >128 µg/mL
- MIC Enterococcus avium (GC 4558) (Enterococcus sp.; Enterococcus avium (GC 4558), broth dilution, 18 hours at 35° C.): 128 µg/mL
- MIC Enterococcus faecalis (ATCC 29212) (Enterococcus sp.; Enterococcus faecalis (ATCC 29212), broth dilution, 18 hours at 35° C.): >128 µg/mL
- MIC Enterococcus faecalis (GC 2242) (Enterococcus sp.; Enterococcus faecalis (GC 2242), broth dilution, 18 hours at 35° C.): >128 µg/mL
- MIC Enterococcus faecalis (GC 2691) (Enterococcus sp.; Enterococcus faecalis (GC 2691), broth dilution, 18 hours at 35° C.): >128 µg/mL
- MIC Enterococcus faecalis (GC 3059) (Enterococcus sp.; Enterococcus faecalis (GC 3059), broth dilution, 18 hours at 35° C.): >128 µg/mL
- MIC Enterococcus faecalis (GC 4552) (Enterococcus sp.; Enterococcus faecalis (GC 4552), broth dilution, 18 hours at 35° C.): >128 µg/mL
- MIC Enterococcus faecalis (GC 4553) (Enterococcus sp.; Enterococcus faecalis (GC 4553), broth dilution, 18 hours at 35° C.): 128 µg/mL
- MIC Enterococcus faecalis (GC 4554) (Enterococcus sp.; Enterococcus faecalis (GC 4554), broth dilution, 18 hours at 35° C.): >128 µg/mL
- MIC Enterococcus faecalis (GC 6189) (Enterococcus sp.; Enterococcus faecalis (GC 6189), broth dilution, 18 hours at 35° C.): >128 µg/mL
- MIC Enterococcus faecium (GC 2243) (Enterococcus sp.; Enterococcus faecium (GC 2243), broth dilution, 18 hours at 35° C.): >128 µg/mL
- MIC Enterococcus faecium (GC 4556) (Enterococcus sp.; Enterococcus faecium (GC 4556), broth dilution, 18 hours at 35° C.): >128 µg/mL
- MIC Enterococcus faecium (GC 4557) (Enterococcus sp.; Enterococcus faecium (GC 4557), broth dilution, 18 hours at 35° C.): 128 µg/mL
- MIC Enterococcus faecalis (ATCC 29212) (Enterococcus sp.; strain ATCC 29212): >128 µg/mL
- MIC Enterococcus faecalis (GC 2242) (Enterococcus sp.; strain GC 2242): >128 µg/mL
- MIC Enterococcus faecium (GC 2243) (Enterococcus sp.; strain GC 2243): >128 µg/mL
- MIC Enterococcus faecalis (GC 2691) (Enterococcus sp.; strain GC 2691): >128 µg/mL
- MIC Enterococcus faecalis (GC 3059) (Enterococcus sp.; strain GC 3059): >128 µg/mL
- MIC Enterococcus faecalis (GC 4552) (Enterococcus sp.; strain GC 4552): >128 µg/mL
- MIC Enterococcus faecalis (GC 4553) (Enterococcus sp.; strain GC 4553): 128 µg/mL
- MIC Enterococcus faecalis (GC 4554) (Enterococcus sp.; strain GC 4554): >128 µg/mL
- MIC Enterococcus faecium (GC 4556) (Enterococcus sp.; strain GC 4556): >128 µg/mL
- MIC Enterococcus faecium (GC 4557) (Enterococcus sp.; strain GC 4557): 128 µg/mL
- MIC Enterococcus avium (GC 4558) (Enterococcus sp.; strain GC 4558): 128 µg/mL
- MIC Enterococcus faecalis (GC 6189) (Enterococcus sp.; strain GC 6189): >128 µg/mL
- MIC Escherichia coli (ATCC 25922) (Escherichia coli; strain ATCC 25922): >128 µg/mL
- MIC Escherichia coli (GC 4559) (Escherichia coli; strain GC 4559): >128 µg/mL
- MIC Escherichia coli (GC 4560) (Escherichia coli; strain GC 4560): 16 µg/mL
